Data taken from paper PMC11996864, “A small-molecule inhibitor of BCL10-MALT1 interaction abrogates progression of diffuse large B cell lymphoma” (The Journal of Clinical Investigation, 2025).
pIC50: −log10 of the molar value. Values joined by “and” are separate entries in the source; they are usually repeats but may differ in a detail not shown here. Equal entries are not always repeated. Where two headings read alike, the source gives them in different places.

Tests used:
[1] = In vivo pharmacokinetics, plasma LC-MS/MS
Method: Pharmacokinetic and cytochrome P450 inhibition studies. Studies were performed with the assistance of Touchstone Biosciences (Plymouth Meeting, Pennsylvania). For pharmacokinetic bioanalysis, male CD-1 mice were fasted overnight before being dosed with M1i-124 via oral gavage (20mg/kg), intraperitoneal injection in the lower right quadrant of the abdomen (20 mg/kg), or intravenous tail vein injection (5 mg/kg). All blood samples were taken via tail vein at 5, 15, and 30 minutes, and 1, 2, 4, 6, 8, and 24 hours after compound administration. The plasma concentration of the compound was determined using LC-MS/MS analysis. […]

CYP2C19 = molecular target: T1, CYP2C19 (Homo sapiens, UniProt P33261); assay: Reversible CYP inhibition in human liver microsomes; format: in vitro ADME; details: read-out: Direct inhibition (IC50) CYP2C19
T1 construct: from tissue; host or cells: pooled, mixed-gender human liver microsomes
Method: Pharmacokinetic and cytochrome P450 inhibition studies. Studies were performed with the assistance of Touchstone Biosciences (Plymouth Meeting, Pennsylvania). […]
For reversible CYP […]
inhibition studies, different concentrations of M1i-124 were added to 0.2 mg/ml pooled, mixed-gender human liver microsomes (HLM). Each CYP450 isoform-specific probe substrate (CYP1A2, CYP2C9, CYP2C19, CYP2D6, and CYP3A4) was incubated individually with HLM and M1i-124 or corresponding positive control inhibitor (Phenacetin, Tolbutamaide, S-Mephenytoin, Dextromethorphan, Midazolam, and Testosterone). Samples were analyzed for metabolites of the probe substrates by LC-MS/MS at each of the test compound concentrations. A decrease in the formation of the metabolites compared to vehicle control was used to calculate the […]

T1 sequence (P33261 whole entry): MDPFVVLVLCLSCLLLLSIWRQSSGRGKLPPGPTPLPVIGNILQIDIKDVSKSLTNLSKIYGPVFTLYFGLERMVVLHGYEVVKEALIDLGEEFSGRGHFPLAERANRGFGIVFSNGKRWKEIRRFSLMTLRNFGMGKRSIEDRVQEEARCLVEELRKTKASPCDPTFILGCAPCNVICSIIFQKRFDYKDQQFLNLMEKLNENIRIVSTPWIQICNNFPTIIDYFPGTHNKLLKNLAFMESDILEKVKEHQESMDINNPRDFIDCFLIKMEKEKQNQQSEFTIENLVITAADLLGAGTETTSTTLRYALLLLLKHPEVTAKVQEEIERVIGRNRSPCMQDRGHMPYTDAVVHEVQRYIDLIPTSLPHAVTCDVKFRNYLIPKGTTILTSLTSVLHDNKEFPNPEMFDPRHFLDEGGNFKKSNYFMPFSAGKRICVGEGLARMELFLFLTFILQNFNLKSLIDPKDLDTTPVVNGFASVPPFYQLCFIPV

O=S(=O)(NCc1ccc2c(c1)OCO2)c1ccc(Cc2ccc(S(=O)(=O)NCc3ccc4c(c3)OCO4)cc2)cc1 [M1i-124]
Plasma concentration (IP) ([1]; IP, 0.083 hours): 658 ng/mL and 561 ng/mL | Plasma concentration (IP) ([1]; IP, 0.25 hours): 720 ng/mL and 607 ng/mL | Plasma concentration (IP) ([1]; IP, 0.5 hours): 775 ng/mL and 671 ng/mL | Plasma concentration (IP) ([1]; IP, 1 hours): 437 ng/mL and 307 ng/mL | Plasma concentration (IP) ([1]; IP, 2 hours): 242 ng/mL and 173 ng/mL | Plasma concentration (IP) ([1]; IP, 4 hours): 110 ng/mL and 86.5 ng/mL | Plasma concentration (IP) ([1]; IP, 6 hours): 59.4 ng/mL | Plasma concentration (IP) ([1]; IP, 8 hours): 38.1 ng/mL and 35.4 ng/mL | Plasma concentration (IP) ([1]; IP, 24 hours): 7.87 ng/mL | Plasma concentration (IV) ([1]; IV, 0.083 hours): 2080 ng/mL and 1440 ng/mL | Plasma concentration (IV) ([1]; IV, 0.25 hours): 1320 ng/mL and 1020 ng/mL | Plasma concentration (IV) ([1]; IV, 0.5 hours): 302 ng/mL | Plasma concentration (IV) ([1]; IV, 1 hours): 115 ng/mL and 152 ng/mL | Plasma concentration (IV) ([1]; IV, 2 hours): 30.6 ng/mL and 29 ng/mL | Plasma concentration (IV) ([1]; IV, 4 hours): 16.3 ng/mL | Plasma concentration (IV) ([1]; IV, 6 hours): 12.7 ng/mL and 16.3 ng/mL | Plasma concentration (IV) ([1]; IV, 8 hours): 12.6 ng/mL | Plasma concentration (IV) ([1]; IV, 24 hours): 2.97 ng/mL and 3.88 ng/mL | Plasma concentration (PO) ([1]; PO, 0.083 hours): 306 ng/mL and 267 ng/mL | Plasma concentration (PO) ([1]; PO, 0.25 hours): 56.5 ng/mL and 86.1 ng/mL | Plasma concentration (PO) ([1]; PO, 0.5 hours): 57.2 ng/mL | Plasma concentration (PO) ([1]; PO, 1 hours): 25.9 ng/mL and 21.8 ng/mL | Plasma concentration (PO) ([1]; PO, 2 hours): 14.7 ng/mL and 15.7 ng/mL | Plasma concentration (PO) ([1]; PO, 4 hours): 13.1 ng/mL | Plasma concentration (PO) ([1]; PO, 6 hours): 9.73 ng/mL and 11.5 ng/mL | Plasma concentration (PO) ([1]; PO, 8 hours): 8.44 ng/mL and 9.62 ng/mL | Plasma concentration (PO) ([1]; PO, 24 hours): 2.39 ng/mL and 2.74 ng/mL | concentration at 6 h ([1]; male, CD-1, mouse, in vivo, ip, 20 mg/kg, IP, 6 hours, read-out: Plasma concentration (IP)): 54.8 ng/mL | concentration at 24 h ([1]; male, CD-1, mouse, in vivo, ip, 20 mg/kg, IP, 24 hours, read-out: Plasma concentration (IP)): 7.17 ng/mL | concentration at 0.5 h ([1]; male, CD-1, mouse, in vivo, iv, 5 mg/kg, IV, 0.5 hours, read-out: Plasma concentration (IV)): 412 ng/mL | concentration at 4 h ([1]; male, CD-1, mouse, in vivo, iv, 5 mg/kg, IV, 4 hours, read-out: Plasma concentration (IV)): 20.4 ng/mL | concentration at 8 h ([1]; male, CD-1, mouse, in vivo, iv, 5 mg/kg, IV, 8 hours, read-out: Plasma concentration (IV)): 10.9 ng/mL | concentration at 0.5 h ([1]; male, CD-1, mouse, in vivo, po, 20 mg/kg, PO, 0.5 hours, read-out: Plasma concentration (PO)): 42.6 ng/mL | concentration at 4 h ([1]; male, CD-1, mouse, in vivo, po, 20 mg/kg, PO, 4 hours, read-out: Plasma concentration (PO)): 15.4 ng/mL | concentration at 0.083 h ([1]; male, CD-1, mouse, plasma, ip, 20 mg/kg, IP, 0.083 hours, read-out: Plasma concentration (IP)): 451 ng/mL | concentration at 0.25 h ([1]; male, CD-1, mouse, plasma, ip, 20 mg/kg, IP, 0.25 hours, read-out: Plasma concentration (IP)): 509 ng/mL | concentration at 0.5 h ([1]; male, CD-1, mouse, plasma, ip, 20 mg/kg, IP, 0.5 hours, read-out: Plasma concentration (IP)): 596 ng/mL | concentration at 1 h ([1]; male, CD-1, mouse, plasma, ip, 20 mg/kg, IP, 1 hours, read-out: Plasma concentration (IP)): 349 ng/mL | concentration at 2 h ([1]; male, CD-1, mouse, plasma, ip, 20 mg/kg, IP, 2 hours, read-out: Plasma concentration (IP)): 259 ng/mL | concentration at 4 h ([1]; male, CD-1, mouse, plasma, ip, 20 mg/kg, IP, 4 hours, read-out: Plasma concentration (IP)): 126 ng/mL | concentration at 6 h ([1]; male, CD-1, mouse, plasma, ip, 20 mg/kg, IP, 6 hours, read-out: Plasma concentration (IP)): 75.3 ng/mL | concentration at 8 h ([1]; male, CD-1, mouse, plasma, ip, 20 mg/kg, IP, 8 hours, read-out: Plasma concentration (IP)): 53.2 ng/mL | concentration at 24 h ([1]; male, CD-1, mouse, plasma, ip, 20 mg/kg, IP, 24 hours, read-out: Plasma concentration (IP)): 9.14 ng/mL | Cmax ([1]; male, CD-1, mouse, plasma, ip, mice, 20 mg/kg i.p., read-out: mean peak plasma concentration (Cmax)): 681 ng/mL | half-life ([1]; male, CD-1, mouse, plasma, ip, mice, 20 mg/kg i.p., read-out: t1/2 (converted)): 6.33 h | concentration at 0.083 h ([1]; male, CD-1, mouse, plasma, iv, 5 mg/kg, IV, 0.083 hours, read-out: Plasma concentration (IV)): 2070 ng/mL | concentration at 0.25 h ([1]; male, CD-1, mouse, plasma, iv, 5 mg/kg, IV, 0.25 hours, read-out: Plasma concentration (IV)): 1200 ng/mL | concentration at 0.5 h ([1]; male, CD-1, mouse, plasma, iv, 5 mg/kg, IV, 0.5 hours, read-out: Plasma concentration (IV)): 361 ng/mL | concentration at 1 h ([1]; male, CD-1, mouse, plasma, iv, 5 mg/kg, IV, 1 hours, read-out: Plasma concentration (IV)): 122 ng/mL | concentration at 2 h ([1]; male, CD-1, mouse, plasma, iv, 5 mg/kg, IV, 2 hours, read-out: Plasma concentration (IV)): 24.3 ng/mL | concentration at 4 h ([1]; male, CD-1, mouse, plasma, iv, 5 mg/kg, IV, 4 hours, read-out: Plasma concentration (IV)): 13.4 ng/mL | concentration at 6 h ([1]; male, CD-1, mouse, plasma, iv, 5 mg/kg, IV, 6 hours, read-out: Plasma concentration (IV)): 11.6 ng/mL | concentration at 8 h ([1]; male, CD-1, mouse, plasma, iv, 5 mg/kg, IV, 8 hours, read-out: Plasma concentration (IV)): 8.84 ng/mL | concentration at 24 h ([1]; male, CD-1, mouse, plasma, iv, 5 mg/kg, IV, 24 hours, read-out: Plasma concentration (IV)): 2.62 ng/mL | C0 ([1]; male, CD-1, mouse, plasma, iv, mice, 5 mg/kg i.v., read-out: mean initial plasma concentration): 1860 ng/mL | Vd ([1]; male, CD-1, mouse, plasma, iv, mice, 5 mg/kg i.v., read-out: steady-state volume of distribution (Vss)): 15.4 L/kg | clearance ([1]; male, CD-1, mouse, plasma, iv, mice, 5 mg/kg i.v., read-out: systemic clearance): 77.9 mL/min/kg | half-life ([1]; male, CD-1, mouse, plasma, iv, mice, 5 mg/kg i.v., read-out: terminal half-life (t1/2) (converted)): 8.72 h | concentration at 0.083 h ([1]; male, CD-1, mouse, plasma, po, 20 mg/kg, PO, 0.083 hours, read-out: Plasma concentration (PO)): 310 ng/mL | concentration at 0.25 h ([1]; male, CD-1, mouse, plasma, po, 20 mg/kg, PO, 0.25 hours, read-out: Plasma concentration (PO)): 78.2 ng/mL | concentration at 0.5 h ([1]; male, CD-1, mouse, plasma, po, 20 mg/kg, PO, 0.5 hours, read-out: Plasma concentration (PO)): 35.8 ng/mL | concentration at 1 h ([1]; male, CD-1, mouse, plasma, po, 20 mg/kg, PO, 1 hours, read-out: Plasma concentration (PO)): 22.5 ng/mL | concentration at 2 h ([1]; male, CD-1, mouse, plasma, po, 20 mg/kg, PO, 2 hours, read-out: Plasma concentration (PO)): 17.7 ng/mL | concentration at 4 h ([1]; male, CD-1, mouse, plasma, po, 20 mg/kg, PO, 4 hours, read-out: Plasma concentration (PO)): 11.5 ng/mL | concentration at 6 h ([1]; male, CD-1, mouse, plasma, po, 20 mg/kg, PO, 6 hours, read-out: Plasma concentration (PO)): 13.1 ng/mL | concentration at 8 h ([1]; male, CD-1, mouse, plasma, po, 20 mg/kg, PO, 8 hours, read-out: Plasma concentration (PO)): 11.7 ng/mL | concentration at 24 h ([1]; male, CD-1, mouse, plasma, po, 20 mg/kg, PO, 24 hours, read-out: Plasma concentration (PO)): 3.18 ng/mL | half-life ([1]; male, CD-1, mouse, plasma, po, mice, 20 mg/kg p.o., read-out: t1/2 (converted)): 8.76 h | Cmax ([1]; male, CD-1, mouse, plasma, mice, 20 mg/kg oral, read-out: Cmax): 294 ng/mL | adverse clinical signs during PK studies ([1]; mice, 24 hours, result in words): No adverse clinical signs were observed | pIC50 (CYP2C19): 4.55
